Consider five compounds from ChEMBL document CHEMBL2074247, “Induction of P-glycoprotein expression by HIV protease inhibitors in cell culture” (AIDS, 2000).

This data set has as its target ATP-dependent translocase ABCB1 (Homo sapiens, UniProt P08183). The data set is described as follows: TP_TRANSPORTER: Western blot, LS-180V. The data set is classed as functional, cell-based. In general terms: In western blotting, separated proteins are transferred to a membrane and probed.

ATP-dependent translocase ABCB1, sequence (P08183 whole entry): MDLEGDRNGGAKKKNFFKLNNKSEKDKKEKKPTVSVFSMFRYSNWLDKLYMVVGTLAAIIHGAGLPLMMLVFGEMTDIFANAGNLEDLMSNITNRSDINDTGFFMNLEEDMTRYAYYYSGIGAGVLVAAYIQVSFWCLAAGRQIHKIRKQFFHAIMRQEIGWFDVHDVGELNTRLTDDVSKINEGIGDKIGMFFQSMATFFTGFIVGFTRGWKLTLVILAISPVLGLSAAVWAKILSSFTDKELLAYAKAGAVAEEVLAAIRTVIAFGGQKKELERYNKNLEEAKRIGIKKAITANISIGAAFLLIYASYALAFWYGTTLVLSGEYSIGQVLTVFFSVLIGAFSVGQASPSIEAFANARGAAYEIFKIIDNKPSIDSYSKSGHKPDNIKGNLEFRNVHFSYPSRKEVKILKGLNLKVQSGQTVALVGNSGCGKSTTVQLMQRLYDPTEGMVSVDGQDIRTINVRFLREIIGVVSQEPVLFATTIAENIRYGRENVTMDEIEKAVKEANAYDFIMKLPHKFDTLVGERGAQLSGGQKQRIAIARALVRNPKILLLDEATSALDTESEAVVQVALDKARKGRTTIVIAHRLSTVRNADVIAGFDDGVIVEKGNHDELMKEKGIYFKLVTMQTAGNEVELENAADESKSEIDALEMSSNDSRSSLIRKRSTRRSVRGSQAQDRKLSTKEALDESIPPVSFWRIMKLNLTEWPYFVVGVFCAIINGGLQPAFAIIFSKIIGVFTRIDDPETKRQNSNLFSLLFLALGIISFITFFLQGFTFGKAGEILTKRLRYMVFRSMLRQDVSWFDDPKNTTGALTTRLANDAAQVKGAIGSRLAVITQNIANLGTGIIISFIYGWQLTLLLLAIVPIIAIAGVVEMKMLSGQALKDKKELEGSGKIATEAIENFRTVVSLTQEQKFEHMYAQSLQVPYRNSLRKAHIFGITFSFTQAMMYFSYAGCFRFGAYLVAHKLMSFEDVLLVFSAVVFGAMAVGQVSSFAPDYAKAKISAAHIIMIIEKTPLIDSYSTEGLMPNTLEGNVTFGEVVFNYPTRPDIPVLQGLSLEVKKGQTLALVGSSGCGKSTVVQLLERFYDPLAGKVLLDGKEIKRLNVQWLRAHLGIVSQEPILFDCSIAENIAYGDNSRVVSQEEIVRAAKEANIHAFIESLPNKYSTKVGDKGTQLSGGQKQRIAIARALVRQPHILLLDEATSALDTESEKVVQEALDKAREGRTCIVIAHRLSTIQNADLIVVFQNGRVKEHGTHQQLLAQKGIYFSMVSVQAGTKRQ

On to `CC(C)(C)NC(=O)[C@@H]1C[C@@H]2CCCC[C@@H]2CN1C[C@@H](O)[C@H](Cc1ccccc1)NC(=O)[C@H](CC(N)=O)NC(=O)c1ccc2ccccc2n1` [SAQUINAVIR], for which the Activity result is “inducer [+]”.

In the case of `CC(C)(C)NC(=O)[C@@H]1CN(Cc2cccnc2)CCN1C[C@@H](O)C[C@@H](Cc1ccccc1)C(=O)N[C@H]1c2ccccc2C[C@H]1O.O` [INDINAVIR], the Activity result is “inducer [+]”.

Regarding `CC(C)CN(C[C@@H](O)[C@H](Cc1ccccc1)NC(=O)O[C@H]1CCOC1)S(=O)(=O)c1ccc(N)cc1` [AMPRENAVIR], the Activity entry was “inducer [+]”.

Take `Cc1c(O)cccc1C(=O)N[C@@H](CSc1ccccc1)[C@H](O)CN1C[C@H]2CCCC[C@H]2C[C@H]1C(=O)NC(C)(C)C` [NELFINAVIR]: the Activity result was “inducer [+]”.

On to `COc1ccc(CCN(C)CCCC(C#N)(c2ccc(OC)c(OC)c2)C(C)C)cc1OC` (stereo not given) [VERAPAMIL], for which the Activity result is “inducer [+]”.
